Results: PMC6418145 (Scientific Reports, 2019)

How the values were obtained:
hM3Dq = test system: hM3Dq; design: method as in PMID 25587888; conditions: FLIPR assay; cited from earlier work
D1 dopamine receptor = biological target: T1, D1 dopamine receptor (Homo sapiens, UniProt P21728); test: Off-target radioligand binding; conditions: 10 μM compound
T1 construct: expressed in transfected cells; host or cells: HEK-293 or CHO

M2 muscarinic receptor = biological target: T2, M2 muscarinic receptor (Homo sapiens, UniProt P08172); test: Off-target radioligand binding; conditions: 10 μM compound
T2 construct: expressed in transfected cells; host or cells: HEK-293 or CHO

AChE = AChE (Homo sapiens, UniProt P22303); conditions: 10 μM compound, not shown
PDE3A = PDE3A (Homo sapiens, UniProt Q14432); test: Off-target enzyme assay; format: biochemical; conditions: 10 μM compound, not shown
[1] = Pharmacokinetics in plasma, CSF and cortical brain tissue after i.p. injection; conditions: mice; for mean concentration in brain: cortical tissue
Description: Blood (approximately 100 µl) was collected from the vena facialis in anaesthetised animals, followed by CSF sampling (approximately 10 µl) from the cisterna magna under pentobarbital anaesthesia (1:25 in saline, 10 ml/kg, i.p., Narcoren, Boehringer Ingelheim, Germany). Subsequently, the brain was removed and its anterior third (including the medial prefrontal and anterior cingulate cortices) dissected and transferred into Precellys tubes cooled in liquid nitrogen. For plasma extraction, blood was transferred to EDTA coated tubes and centrifuged for 10 min at 10,000 rpm at 4 °C. Maximal plasma concentration (Cmax), time taken to reach maximal plasma concentration (Tmax) and mean residence time were assessed using liquid chromatography–mass spectrometry analysis executed on the HP1200 (Agilent, CA, USA) coupled to the API 6500 (AB Sciex, Germany) using BI00001052 (Boehringer Ingelheim) as internal standard. In short, 5 µl of plasma or CSF sample were mixed with 10 nl internal standard. 70 µl acetonitrile (ACN)/methanol (1:1) was added, kept at −20 °C for 15 min and centrifuged for 4 min at 4000 rpm at 4 °C. 30 µl of the supernatant was mixed with 170 µl 0.1% formic acid. Brain homogenization was executed by Precellys Evolution (Bertin) after adding ACN/methanol (1:1)/aq.dest. (3:1) to each brain sample with a volume corresponding to 4 parts of the brain weight, followed by centrifugation for 1 min at 4000 rpm at 4 °C. 5 µl of the supernatant was mixed with 10 nl of internal standard.

Lck kinase = Lck kinase (Homo sapiens, UniProt P06239); test: Off-target enzyme assay; format: biochemical; conditions: 10 μM compound, not shown
COX1 = COX1 (Homo sapiens, UniProt P23219); test: Off-target enzyme assay; format: biochemical; conditions: 10 μM compound, not shown
M3 muscarinic receptor = biological target: T3, M3 muscarinic receptor (Homo sapiens, UniProt P20309); test: Off-target radioligand binding; conditions: 10 μM compound
T3 construct: expressed in transfected cells; host or cells: HEK-293 or CHO

COX2 = COX2 (Homo sapiens, UniProt P35354); test: Off-target enzyme assay; format: biochemical; conditions: 10 μM compound, not shown
α2A adrenoreceptor = biological target: T4, α2A adrenoreceptor (Homo sapiens, UniProt P08913); test: Off-target radioligand binding; conditions: 10 μM compound
T4 construct: expressed in transfected cells; host or cells: HEK-293 or CHO

C57BL/6 J mice = test: 5-choice serial-reaction-time task (5-CSRTT), unspecific behavioural effects; format: in vivo
Description: Training was performed in 16 standard mouse Bussey-Saksida touchscreen chambers (model #80614, Campden Instruments Ltd., UK), previously described in detail. In short, each trapezoidal operant chamber was placed in a sound- and light- attenuating box individually equipped with a house light, a reward magazine with light, a liquid reward dispenser, a sound generator, a perforated stainless steel floor, and a touchscreen placed at the wide end of the chamber and covered permanently by a black acrylic glass 5-hole mask. The reward magazine, located opposite the touchscreen, was connected to a liquid dispenser delivering strawberry milk (Yazoo®). Infrared break-beam sensors located inside and on the front of the food magazine as well as on the touch-screen walls allowed the detection of reward delivery and the animal’s locomotor activity, respectively. Four individual chambers were connected to one computer for controlling the task flow using the graphical task design software ABET II Touch (model #89505, Campden Instruments Ltd., UK) and the WhiskerServer software (Cambridge University Technical Services Ltd., UK)[27].
Mice were habituated to the chambers for three consecutive 20-min sessions during which the house light and magazine light were permanently on. At the start of each session, 30 µl strawberry milk was delivered. Every 15 s after head entry into the magazine, an additional 30 µl strawberry milk was delivered. Head entry turned the magazine light off.
The 5-CSRTT training protocol, originally designed for rats[28], was similar as that previously described for mice[29]–[31]. The training comprised six stages with 30-min sessions initiated by the illumination of the house and magazine lights and delivery of 20 µl strawberry milk. Collection of the reward switched the magazine light off and started the first trial.
In the first stage, the middle window was permanently illuminated, which was turned off when touched, followed by reward delivery (20 µl) with illumination of the magazine light. Head entry switched off the magazine light. Mice performing 30 trials in a session continued to the next stage. Training sessions in stages 2–6 comprised a maximum of 120 trials. Collection of the reward initiated the inter-trial interval (ITI) followed by the illumination of one pseudo-randomly selected aperture for a fixed stimulus duration (SD). Any touch to the screen during the ITI was classified as a premature response which was not counted as a trial and terminated the current trial. Following stimulus detection, a nose poke to the corresponding aperture within a fixed time interval (limited hold; LH) was required for reward delivery. Premature responses made during the ITI, incorrect responses, and the omission of a response within the LH led to a timeout (TO, house light switched off for 4 s) instead of delivery of reward. Correct, incorrect and omitted responses defined the total number of trials. […] The criteria to pass the last stage and reach baseline performance were to complete >30 correct trials, with ≥80% accuracy and ≤30% omissions. Percentage accuracy was defined as the number of correct trials divided by the sum of correct and incorrect trials. Percentage omissions were calculated in terms of the number of completed trials. Premature responding was calculated as a percentage of completed trials. Perseveration was calculated as the number of additional responses made in the same aperture following a correct response. Additionally, the correct-response latency (time from stimulus presentation to correct response) and reward latency (time from correct response to reward collection) were measured across all trials.
Either one or up to three days before, as well as one day after the task challenge, mice were trained at baseline conditions to check for any unexpected changes in task performance (e.g. by long lasting drug- or challenge-induced effects). […]

D2 dopamine receptor = biological target: T5, D2 dopamine receptor (Homo sapiens, UniProt P14416); test: Off-target radioligand binding; conditions: 10 μM compound
T5 construct: expressed in transfected cells; host or cells: HEK-293 or CHO

[2] = biological target: human M4 muscarinic receptor (Homo sapiens, UniProt P08173); test: Potency at parent receptor of hM4Di; format: cell-based; conditions: data not shown
[3] = 15 min after i.p. 3.5 mg/kg CNO
[4] = 30 min after i.p. 3.5 mg/kg CNO
[5] = 60 min after i.p. 3.5 mg/kg CNO

Sequence of AChE (P22303 32-614): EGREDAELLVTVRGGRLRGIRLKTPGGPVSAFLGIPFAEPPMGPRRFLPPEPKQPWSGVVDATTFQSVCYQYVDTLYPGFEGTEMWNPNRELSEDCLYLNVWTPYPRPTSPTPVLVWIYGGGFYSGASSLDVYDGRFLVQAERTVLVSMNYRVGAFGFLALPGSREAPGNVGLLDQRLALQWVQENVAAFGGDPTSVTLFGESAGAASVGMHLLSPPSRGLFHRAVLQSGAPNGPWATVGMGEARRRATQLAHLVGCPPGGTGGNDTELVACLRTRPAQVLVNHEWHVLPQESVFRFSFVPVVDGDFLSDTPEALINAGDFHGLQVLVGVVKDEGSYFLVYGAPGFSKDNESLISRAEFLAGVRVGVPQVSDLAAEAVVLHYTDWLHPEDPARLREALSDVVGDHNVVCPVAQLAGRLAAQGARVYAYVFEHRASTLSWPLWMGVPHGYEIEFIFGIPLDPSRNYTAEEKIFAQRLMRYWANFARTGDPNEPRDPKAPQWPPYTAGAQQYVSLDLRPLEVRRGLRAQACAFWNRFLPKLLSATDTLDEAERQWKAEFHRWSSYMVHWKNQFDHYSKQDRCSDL
T4 sequence (P08913 whole entry): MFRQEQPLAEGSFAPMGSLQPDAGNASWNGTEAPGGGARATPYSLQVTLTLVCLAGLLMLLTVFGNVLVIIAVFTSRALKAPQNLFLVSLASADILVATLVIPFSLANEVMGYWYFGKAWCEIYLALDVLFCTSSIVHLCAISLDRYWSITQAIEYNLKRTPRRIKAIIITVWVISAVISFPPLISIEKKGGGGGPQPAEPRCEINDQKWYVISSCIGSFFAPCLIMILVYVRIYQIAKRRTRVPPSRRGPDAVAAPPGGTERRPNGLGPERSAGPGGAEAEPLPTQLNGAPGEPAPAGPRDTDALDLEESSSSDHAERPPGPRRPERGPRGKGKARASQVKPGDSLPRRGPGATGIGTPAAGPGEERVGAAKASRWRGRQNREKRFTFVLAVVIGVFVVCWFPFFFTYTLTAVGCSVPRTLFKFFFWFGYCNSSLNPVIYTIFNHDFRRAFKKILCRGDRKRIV
Sequence of PDE3A (Q14432 whole entry, species assumed): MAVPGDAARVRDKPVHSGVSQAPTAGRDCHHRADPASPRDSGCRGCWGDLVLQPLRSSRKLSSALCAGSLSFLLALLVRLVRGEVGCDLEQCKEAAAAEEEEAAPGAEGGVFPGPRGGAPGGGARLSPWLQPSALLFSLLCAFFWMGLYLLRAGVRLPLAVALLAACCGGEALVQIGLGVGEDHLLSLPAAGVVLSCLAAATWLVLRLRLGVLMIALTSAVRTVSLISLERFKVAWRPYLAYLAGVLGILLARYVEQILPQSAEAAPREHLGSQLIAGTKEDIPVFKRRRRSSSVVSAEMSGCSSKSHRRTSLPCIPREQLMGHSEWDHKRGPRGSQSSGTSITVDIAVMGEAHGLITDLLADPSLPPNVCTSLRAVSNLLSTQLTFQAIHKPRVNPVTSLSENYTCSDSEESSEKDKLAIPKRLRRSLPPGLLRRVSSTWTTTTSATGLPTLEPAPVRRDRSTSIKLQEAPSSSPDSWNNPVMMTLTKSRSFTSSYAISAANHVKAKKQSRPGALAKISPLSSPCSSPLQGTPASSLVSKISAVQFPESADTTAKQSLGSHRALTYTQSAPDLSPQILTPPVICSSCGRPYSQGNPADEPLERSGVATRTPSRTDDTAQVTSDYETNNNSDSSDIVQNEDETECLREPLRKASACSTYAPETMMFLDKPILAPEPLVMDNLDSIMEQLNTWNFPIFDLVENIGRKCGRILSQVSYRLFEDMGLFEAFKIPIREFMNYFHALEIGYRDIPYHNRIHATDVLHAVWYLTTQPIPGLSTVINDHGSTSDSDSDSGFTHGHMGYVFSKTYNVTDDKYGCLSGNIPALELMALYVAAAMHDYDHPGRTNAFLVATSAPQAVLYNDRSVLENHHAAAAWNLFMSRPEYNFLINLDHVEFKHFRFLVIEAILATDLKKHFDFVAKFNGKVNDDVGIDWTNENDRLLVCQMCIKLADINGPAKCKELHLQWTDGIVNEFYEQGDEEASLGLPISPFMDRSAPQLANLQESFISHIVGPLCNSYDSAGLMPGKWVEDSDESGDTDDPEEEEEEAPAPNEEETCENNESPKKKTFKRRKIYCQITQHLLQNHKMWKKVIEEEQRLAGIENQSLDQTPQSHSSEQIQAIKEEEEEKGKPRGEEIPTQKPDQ
T3 sequence (P20309 whole entry): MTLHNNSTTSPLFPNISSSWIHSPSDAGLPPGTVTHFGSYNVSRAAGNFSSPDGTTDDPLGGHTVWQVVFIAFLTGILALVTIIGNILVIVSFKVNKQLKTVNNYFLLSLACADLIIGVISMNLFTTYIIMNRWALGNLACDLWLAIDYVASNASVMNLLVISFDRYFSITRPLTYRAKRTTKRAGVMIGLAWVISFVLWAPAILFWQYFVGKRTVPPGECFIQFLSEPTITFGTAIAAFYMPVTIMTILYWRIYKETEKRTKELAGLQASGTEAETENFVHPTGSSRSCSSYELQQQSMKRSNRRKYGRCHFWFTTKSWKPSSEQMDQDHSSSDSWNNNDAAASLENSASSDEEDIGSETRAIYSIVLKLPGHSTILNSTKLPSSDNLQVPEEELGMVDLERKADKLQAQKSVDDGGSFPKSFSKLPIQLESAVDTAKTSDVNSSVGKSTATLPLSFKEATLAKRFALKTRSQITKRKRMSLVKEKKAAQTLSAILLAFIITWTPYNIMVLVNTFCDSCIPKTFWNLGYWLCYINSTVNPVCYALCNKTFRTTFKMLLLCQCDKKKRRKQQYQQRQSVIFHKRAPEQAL
Sequence of COX2 (P35354 18-604): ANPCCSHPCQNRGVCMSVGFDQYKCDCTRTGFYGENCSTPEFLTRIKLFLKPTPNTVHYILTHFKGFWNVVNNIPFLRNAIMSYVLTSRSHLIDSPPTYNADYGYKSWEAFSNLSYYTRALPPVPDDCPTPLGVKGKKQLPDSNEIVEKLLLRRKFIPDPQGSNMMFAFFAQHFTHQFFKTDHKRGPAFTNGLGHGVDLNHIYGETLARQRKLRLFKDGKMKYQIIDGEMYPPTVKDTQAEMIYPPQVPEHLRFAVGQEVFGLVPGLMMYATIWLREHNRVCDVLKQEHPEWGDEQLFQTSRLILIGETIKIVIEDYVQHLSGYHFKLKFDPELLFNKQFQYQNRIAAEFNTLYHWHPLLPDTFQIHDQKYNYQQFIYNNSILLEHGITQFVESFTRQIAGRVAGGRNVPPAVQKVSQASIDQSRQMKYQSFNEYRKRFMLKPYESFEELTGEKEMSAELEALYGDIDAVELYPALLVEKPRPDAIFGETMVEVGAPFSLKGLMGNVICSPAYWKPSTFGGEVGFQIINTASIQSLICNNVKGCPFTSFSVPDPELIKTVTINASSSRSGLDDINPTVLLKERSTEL
Sequence of human M4 muscarinic receptor (P08173 whole entry): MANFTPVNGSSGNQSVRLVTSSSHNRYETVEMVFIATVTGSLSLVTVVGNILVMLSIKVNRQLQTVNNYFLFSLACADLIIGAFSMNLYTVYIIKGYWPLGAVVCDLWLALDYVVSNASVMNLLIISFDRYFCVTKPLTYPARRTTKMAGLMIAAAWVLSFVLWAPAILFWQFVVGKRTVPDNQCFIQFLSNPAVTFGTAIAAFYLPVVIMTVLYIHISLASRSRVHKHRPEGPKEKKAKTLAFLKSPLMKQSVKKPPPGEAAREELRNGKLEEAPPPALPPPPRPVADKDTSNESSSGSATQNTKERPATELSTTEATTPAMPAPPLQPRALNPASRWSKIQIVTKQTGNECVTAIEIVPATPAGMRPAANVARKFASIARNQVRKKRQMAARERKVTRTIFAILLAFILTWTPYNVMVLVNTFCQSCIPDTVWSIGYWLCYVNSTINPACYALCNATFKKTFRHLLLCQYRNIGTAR
T1 sequence (P21728 whole entry): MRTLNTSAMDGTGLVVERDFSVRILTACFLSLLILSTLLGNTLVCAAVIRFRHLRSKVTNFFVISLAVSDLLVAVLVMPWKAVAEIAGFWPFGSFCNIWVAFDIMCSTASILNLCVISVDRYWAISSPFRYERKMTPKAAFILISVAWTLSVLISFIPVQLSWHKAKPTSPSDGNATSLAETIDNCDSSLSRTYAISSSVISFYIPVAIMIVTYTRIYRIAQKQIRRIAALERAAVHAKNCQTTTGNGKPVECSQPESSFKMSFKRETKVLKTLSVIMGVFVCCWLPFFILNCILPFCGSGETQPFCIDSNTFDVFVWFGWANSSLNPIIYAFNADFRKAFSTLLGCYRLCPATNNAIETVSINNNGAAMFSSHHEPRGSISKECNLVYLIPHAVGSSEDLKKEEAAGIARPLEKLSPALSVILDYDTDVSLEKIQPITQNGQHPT
T5 sequence (P14416 1-414 isoform P14416-2): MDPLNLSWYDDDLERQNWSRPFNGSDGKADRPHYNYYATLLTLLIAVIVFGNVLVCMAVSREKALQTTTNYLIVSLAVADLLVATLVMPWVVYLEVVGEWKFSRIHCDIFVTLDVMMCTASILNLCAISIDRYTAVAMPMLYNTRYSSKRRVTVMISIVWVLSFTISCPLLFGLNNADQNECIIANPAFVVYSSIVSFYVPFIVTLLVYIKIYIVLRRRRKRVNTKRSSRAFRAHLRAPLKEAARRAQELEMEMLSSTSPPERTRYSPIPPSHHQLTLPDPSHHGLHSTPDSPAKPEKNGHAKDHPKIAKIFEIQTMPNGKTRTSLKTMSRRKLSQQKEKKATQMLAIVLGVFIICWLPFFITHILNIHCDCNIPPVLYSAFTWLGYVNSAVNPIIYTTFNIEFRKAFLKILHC

## C[N+]1([O-])CCN(C2=Nc3cc(Cl)ccc3Nc3ccccc32)CC1 [CNO, clozapine-N-oxide]
hM3Dq
  EC50: 0.006 µM
D1 dopamine receptor
  competitive inhibition of ligand binding: over 50%
M2 muscarinic receptor
  competitive inhibition of ligand binding: over 50%
AChE
  inhibition: < 20%
PDE3A
  inhibition: < 20%
[1]; 10 mg/kg CNO
  brain concentration by linear extrapolation: ≤ 70 nM
  free (CSF) level by linear extrapolation: ≤ 30 nM
[1]; 15 min after i.p. 1 mg/kg CLZ
  mean CNO concentration as % of the CLZ concentration in plasma: approximately 1.1%
[1]; [3]
  mean concentration in CSF: 11.2 nM
  mean concentration in brain: 23.8 nM
[1]; [4]
  mean concentration in CSF: 10.8 nM
  mean concentration in brain: 18.5 nM
[1]; [5]
  free level (CSF): ~4.05 nM
  mean concentration in brain: could not be detected
[1]; after i.p. 1 mg/kg CLZ, other than plasma at 15 min
  detection at all other time points and in the other sample types: no CNO was detectable
Lck kinase
  inhibition: < 20%
COX1
  inhibition: < 20%
M3 muscarinic receptor
  competitive inhibition of ligand binding: over 50%
COX2
  inhibition: < 20%
α2A adrenoreceptor
  competitive inhibition of ligand binding: over 50%
C57BL/6 J mice; CNO 3.5 or 10 mg/kg i.p., 10 min before test, vs vehicle
  behavioural changes in 5-CSRTT parameters: did not produce any significant behavioural changes in most 5-CSRTT parameters
C57BL/6 J mice; CNO highest dose (10 mg/kg) i.p.
  number of perseverative responses: not at the highest dose
C57BL/6 J mice; CNO intermediate dose (3.5 mg/kg) i.p., p = 0.0142
  number of perseverative responses: modest increase
D2 dopamine receptor
  competitive inhibition of ligand binding: over 50%
[2]
  EC50: 6.3 µM
